Columns and labels:
[1] = Percentage of entrapment of drugs in liposomes, determined by fluorescence after dialysis; type: physicochemical; details: liposomes of cardiolipin, phosphatidyl choline, cholesterol, stearylamine-DTPA
Description: For the preparation of liposomes, 6 mg of doxorubicin or daunorubicin was added to 9 mg of cardiolipin solution and evaporated to dryness under N2. To this dried mixture were then added 22.5 mg of phosphatidyl choline, 7.5 mg cholesterol and 3 mg of stearylamine-DTPA. Again, the mixture was evaporated to dryness under N2.
The dried lipids and doxorubicin or daunorubicin were resuspended in 6 ml of 0.01 M phosphate buffer with 0.85% NaCl, pH 7.4 (PBS). After one-half-hour swelling time, the liposomes were stirred for 15 minutes, followed by sonication (Heat System, Model W-220F) in a fixed temperature bath at 37°C for 90 minutes. The non-entrapped doxorubicin or daunorubicin was separated from liposome-encapsulated drug by extensive dialysis against 0.001 M phosphate buffer with 0.85% NaCl, pH 7.4 at 4°C over a period of 20 hours with at least two changes of buffer solutions (250 ml/ml liposomes). […] The difference in encapsulation of these two drugs relates to their lipophilicity; daunorubicin is more lipophilic than doxorubicin. The liposomes were freshly prepared each day and were diluted with 0.01 M phosphate buffer (PBS) so as to administer doses of doxorubicin or daunorubicin equivalent to doses of free drugs for pharmacological, toxicological and therapeutic studies.

[2] = system: P388 leukemia; assay: Antitumor studies against P388 leukemia in mice (median survival time, T/c); type: in vivo, CDF1 mice; details: 24 hours after i.p. implant of 1x10^6 P388 cells, Treated/Control x 100
Description: To investigate the therapeutic effectiveness of doxorubicin and daunorubicin entrapped in liposomes, antitumor studies were performed against P388 leukemia in CDF1 mice. Groups of ten mice were implanted intraperitoneally with lxl0^6 cells of P388 tumor, and drug treatment was initiated on day one intraperitoneally or intravenously after tumor cell inoculation. Antitumor efficacy was expressed in leukemic animals by the increase in median survival time, in the dose-range used, compared to controls. Dead animals were autopsied and toxicity was established on the basis of macroscopic necropsy findings.

[3] = Lethal toxicity in normal mice; type: in vivo; details: 20 mg/kg intraperitoneally, normal CDF1 mice, by day 10
Description: For comparison of lethal toxicity of free doxorubicin and doxorubicin entrapped in liposomes, normal CDF1 mice were administered a dose of 20 mg/kg intraperitonally. The mice were observed until day 80 post-drug administration. The control mice received blank liposomes representing the same concentration of the lipid used to entrap a dose of 20 mg/kg of doxorubicin. Mice in each group were weighed twice weekly and were observed daily.

[4] = Plasma levels in mice after i.v. administration of free or liposome-entrapped drug; details: 6 mg/kg i.v.
Description: (§1) Male CDF1 mice weighing 20-25 g were used to evaluate the influence of liposome encapsulation on plasma levels and physiological disposition of daunorubicin and doxorubicin. Free or encapsulated daunorubicin or doxorubicin was administered intravenously via a lateral tail vein at a dose of 6 mg/kg at 2% body weight (0.02 ml/gm). At 5, 15, 30, 60, 120, 240, and 480 minutes and at 24 hours, mice in each group were bled from the orbital sinus. Blood was collected in heparinized tubes and centrifuged at 1500 rpm for 10 minutes. The plasma layer was separated and frozen. Mice were then killed by cervical dislocation, and the liver, kidney, heart, spleen, small intestine and lungs were excised, rinsed in normal saline, and stored at -20°C until assayed.
(§2) Plasma and tissues were analyzed for drug equivalents by the method of Formelli et al. (Cancer Chemotherapy and Pharmacology, 5, 129-144 (1981)) as modified in the inventor's laboratories. Plasma (0.25 ml) was diluted to 1 ml with distilled water, followed by addition of 0.2 ml of AgN03 (33% wt/vol). Tissues were homogenized in 1 ml of water in a polytron homogenizer. […] The butanol extract was read in a spectrofluorometer at 470 nm excitation and 585 nm emission. Control plasma and tissues obtained from mice treated with blank liposomes were treated the same way and read in the fluorometer to correct for any endogenous fluorescence. […]

[5] = Tissue disposition (heart, liver, spleen, lungs, kidney, intestine) in mice after i.v. administration; details: doxorubicin 6 mg/kg i.v., CDF1 mice; at 15 minutes
Description: as §1, §2

SMILES | efficiency of entrapment in liposomes [1] | T/c (%) ([2]; 2 mg/kg i.p.) | T/c (%) ([2]; 4 mg/kg i.p.) | T/c (%) ([2]; 6 mg/kg i.p.) | T/c (%) ([2]; 6 mg/kg i.p., listed as daunorubicin) | T/c (%) ([2]; 15 mg/kg l.v) | T/c (%) ([2]; 20 mg/kg i.v.) | T/c (%) ([2]; 15 mg/kg i.p.) | T/c (%) ([2]; 20 mg/kg i.p.) | mortality [3] | peak plasma concentration (doxorubicin) [4] | peak drug concentration in the kidney [5]
COc1cccc2c1C(=O)c1c(O)c3c(c(O)c1C2=O)C[C@@](O)(C(C)=O)C[C@@H]3O[C@H]1C[C@H](N)[C@H](O)[C@H](C)O1 [Free Daunorubicin, daunorubicin] | 75-85% | 145.5% | 136.4% | 109.1% | 109% | 145.5% | 154.5% | – | – | – | – | –
COc1cccc2c1C(=O)c1c(O)c3c(c(O)c1C2=O)C[C@@](O)(C(=O)CO)C[C@@H]3O[C@H]1C[C@H](N)[C@H](O)[C@H](C)O1 [Free Doxorubicin, doxorubicin] | 65-75% | – | – | – | – | – | – | 130% | 100% | 100% | 2.4 µg/mL | 41.0 µg/gm
